Results as given in US11234437B2 (priority 2017, dated 2022).

How the values were obtained:
[1] = test system: Magnaporthe grisea (Pyricularia oryzae); experiment: microbe, parasite or virus in culture; format: cell-based; settings: read-out: control of Magnaporthe grisea
[2] = test system: Gibberella zeae (Fusarium graminearum); experiment: whole plant or invertebrate; format: in vivo; settings: in Triticum aestivum, read-out: control of Gibberella zeae
Fusarium culmorum [3] = experiment: whole plant or invertebrate; format: in vivo; settings: in Triticum aestivum, read-out: control of Fusarium culmorum
[4] = test system: Glomerella lagenarium (Colletotrichum lagenarium); experiment: Glomerella lagenarium (Colletotrichum lagenarium) / liquid culture (anthracnose); format: cell-based; settings: Colletotrichum orbiculare, compared to untreated control
Experimental: (§1) Conidia of the fungus from cryogenic storage are directly mixed into nutrient broth (PDB potato dextrose broth). After placing a (DMSO) solution of test compound into a microtiter plate (96-well format), the nutrient broth containing the fungal spores is added. The test plates are incubated at 24° C. and the inhibition of growth is measured photometrically 3-4 days after application.

[5] = test system: Botryotinia fuckeliana (Botrytis cinerea); experiment: Botryotinia fuckeliana (Botrytis cinerea) / liquid culture (gray mould); format: cell-based; settings: compared to untreated control
Experimental: Botryotinia fuckeliana (Botrytis cinerea)/Liquid Culture (Gray Mould)
as §1, with “(Vogels” for “(PDB potato dextrose”, “determined” for “measured”

Sclerotinia sclerotiorum = Sclerotinia sclerotiorum / liquid culture (cottony rot); format: cell-based; settings: compared to untreated control
Experimental: Sclerotinia sclerotiorum/Liquid Culture (Cottony Rot)
Mycelia fragments of a newly grown liquid culture of the fungus are directly mixed into nutrient broth (Vogels broth). After placing a (DMSO) solution of test compound into a microtiter plate (96-well format) the nutrient broth containing the fungal material is added. The test plates are incubated at 24° C. and the inhibition of growth is determined photometrically 3-4 days after application.

Fusarium culmorum [6] = experiment: microbe, parasite or virus in culture; format: cell-based; settings: read-out: control of Fusarium culmorum
[7] = test system: Monographella nivalis (Microdochium nivale); experiment: Monographella nivalis (Microdochium nivale) / liquid culture (foot rot cereals); format: cell-based; settings: compared to untreated control
Experimental: Monographella nivalis (Microdochium nivale)/Liquid Culture (Foot Rot Cereals)
as §1, with “determined” for “measured”, “4-5” for “3-4”

SMILES	inhibition of growth at 20 ppm [1]	pest or weed control at 200 ppm [2]	pest or weed control at 200 ppm (Fusarium culmorum [3])	inhibition of growth at 200 ppm [4]	inhibition of growth at 200 ppm [5]	inhibition of growth at 20 ppm (Sclerotinia sclerotiorum)	inhibition of growth at 200 ppm (Fusarium culmorum [6])	inhibition of growth at 20 ppm [7]	melting point
CC(C)C[C@@](C)(Cc1ccccc1)NC(=O)c1cnc2c(F)c(F)ccc2c1 [Compound F-13, N-[(1S)-1-benzyl-1,3-dimethyl-butyl]-7,8-difluoro-quinoline-3-carboxamide]	≥ 80%	≥ 80%	≥ 80%						
CC1(C[C@](C)(Cc2ccccc2)NC(=O)c2cnc3c(F)cccc3c2)CC1 [Compound F-25, N-[(1R)-1-benzyl-1-methyl-2-(1-methylcyclopropyl)ethyl]-8-fluoro-quinoline-3-carboxamide]	≥ 80%	≥ 80%	≥ 80%	≥ 80%	≥ 80%	≥ 80%	≥ 80%		
C[C@](Cc1ccccc1)(CC1(F)CC1)NC(=O)c1cnc2c(F)cccc2c1 [Compound F-24, N-[(1S)-1-benzyl-2-(1-fluorocyclopropyl)-1-methyl-ethyl]-8-fluoro-quinoline-3-carboxamide]	≥ 80%	≥ 80%	≥ 80%	≥ 80%	≥ 80%	≥ 80%	≥ 80%	≥ 80%	
C[C@](Cc1ccccc1)(CC(F)(F)F)NC(=O)c1cnc2ccccc2c1 [Compound F-34, N-[(1S)-1-benzyl-3,3,3-trifluoro-1-methyl-propyl]quinoline-3-carboxamide]	≥ 80%	≥ 80%	≥ 80%	≥ 80%	≥ 80%	≥ 80%	≥ 80%	≥ 80%	
CC(C)C[C@@](C)(Cc1cccc(F)c1)NC(=O)c1cnc2c(F)cccc2c1 [Compound F-30, 8-fluoro-N-[(1S)-1-[(3-fluorophenyl)methyl]-1,3-dimethyl-butyl]quinoline-3-carboxamide]	≥ 80%		≥ 80%	≥ 80%	≥ 80%		≥ 80%	≥ 80%	
C[C@](Cc1cccc(F)c1)(CC(F)(F)F)NC(=O)c1cnc2c(F)cccc2c1 [Compound F-28, 8-fluoro-N-[(1S)-3,3,3-trifluoro-1-[(3-fluorophenyl)methyl]-1-methyl-propyl]quinoline-3-carboxamide]	≥ 80%	≥ 80%	≥ 80%	≥ 80%	≥ 80%	≥ 80%	≥ 80%		
CC(Cc1ccccc1)(CC1(F)CC1)NC(=O)c1cnc2c(F)cccc2c1 (centres unmarked) [X.013, N-[1-benzyl-2-(1-fluorocyclopropyl)-1-methyl-ethyl]-8-fluoro-quinoline-3-carboxamide]	≥ 80%			≥ 80%	≥ 80%	≥ 80%	≥ 80%	≥ 80%	119 to 121 °C
C=C(Cl)C[C@](C)(Cc1ccccc1)NC(=O)c1cnc2c(F)cccc2c1 [Compound F-35]	≥ 80%	≥ 80%	≥ 80%	≥ 80%	≥ 80%	≥ 80%	≥ 80%	≥ 80%	
CC(C)C[C@](C)(Cc1cccc(F)c1)NC(=O)c1cnc2c(F)cccc2c1 [Compound F-29, 8-fluoro-N-[(1R)-1-[(3-fluorophenyl)methyl]-1,3-dimethyl-butyl]quinoline-3-carboxamide]	≥ 80%	≥ 80%	≥ 80%	≥ 80%	≥ 80%	≥ 80%	≥ 80%		
C[C@@](Cc1cccc(F)c1)(CC(F)(F)F)NC(=O)c1cnc2c(F)cccc2c1 [Compound F-27, 8-fluoro-N-[(1R)-3,3,3-trifluoro-1-[(3-fluorophenyl)methyl]-1-methyl-propyl]quinoline-3-carboxamide]	≥ 80%	≥ 80%	≥ 80%	≥ 80%	≥ 80%		≥ 80%	≥ 80%	
CC(Cc1ccccc1)(CC(F)(F)F)NC(=O)c1cnc2ccccc2c1 (centres unmarked) [X.020, N-(1-benzyl-3,3,3-trifluoro-1-methyl-propyl)quinoline-3-carboxamide]	≥ 80%	≥ 80%	≥ 80%	≥ 80%	≥ 80%	≥ 80%	≥ 80%		130 to 132 °C
C[C@@](Cc1ccccc1)(CC(F)(F)F)NC(=O)c1cnc2ccccc2c1 [Compound F-33, N-[(1R)-1-benzyl-3,3,3-trifluoro-1-methyl-propyl]quinoline-3-carboxamide]			≥ 80%	≥ 80%	≥ 80%		≥ 80%		
C=C(Cl)CC(C)(Cc1ccccc1)NC(=O)c1cnc2c(F)cccc2c1 (centres unmarked) [X.001]	≥ 80%	≥ 80%	≥ 80%	≥ 80%	≥ 80%	≥ 80%	≥ 80%	≥ 80%	56 to 59 °C
C[C@@](Cc1ccccc1)(CC1(F)CC1)NC(=O)c1cnc2c(F)cccc2c1 [Compound F-23, N-[(1R)-1-benzyl-2-(1-fluorocyclopropyl)-1-methyl-ethyl]-8-fluoro-quinoline-3-carboxamide]	≥ 80%		≥ 80%	≥ 80%	≥ 80%		≥ 80%	≥ 80%	
